Data on two compounds can be found in patent publication US20240316155A1, “COMPOSITION FOR TREATING SHORT BOWEL SYNDROME” (ZEALAND PHARMA A/S, priority 2021, published 2024).

In one test the test system is SBS patients. The note with it: cited from earlier work.
Another test has as its system SBS mice. The note with it: cited from earlier work.
Test [1] concerns Short Bowel Syndrome (SBS) mice. As to the kind of experiment: Short bowel syndrome (SBS) mice, ileum and cecum resection (ICR): postoperative survival, body weight, dietary intake. The class given is in vivo, C57BL/6J mice. The note with it: ICR-resected mice. The text has this:
(§1) Adult, male C57BL/6J mice with ˜30 g body weight of ˜4 months received a 12-cm ileum and cecum resection (ICR) with jejunocolonic anastomosis (see FIG. 1, middle). The mice were then randomly assigned to either Cpd 18 or vehicle treatment As control for the abdominal surgery, the sham group was included which had laparotomy, bowel exposure, transection and end-to-end anastomosis but no resection (see FIG. 1, bottom). To prevent intestinal obstruction, all mice were switched to liquid diet 2 days before surgery and maintained on this diet until the end of the experiment. Throughout the experiment, animals were singly housed. All mice were studied with the intention to survive to day 14.
Briefly, mice were anesthetized by i. p. injection of ketamine (100 mg/kg bw) and xylazine (15 mg/kg bw) and orally intubated and ventilated. After midline incision, the distal small bowel and the cecum were exposed and then transected 12 cm proximal to the ileocecal junction and immediately distal to the cecum. The resected bowel was removed, and the length of the specimen was measured. An end-to-end, jejunocolonic anastomosis was created and the abdomen was closed. In the sham group, laparotomy, bowel exposure, transection and end-to-end anastomosis but no resection was performed. Immediately after surgery, all mice were weighed and received 1 ml isotonic saline subcutaneously and carprofen 5 mg/kg body weight. All surgical procedures were performed by the same surgeon. Mice were kept in a heated terrarium (29° C.) for 4 h and then returned to individual cages with free access to liquid food and water. The liquid diet was provided in feeding tubes. Mice were allowed to recover for a day after surgery, and then injected once daily with 30 nmol/kg body weight of Cpd 18. […]
Mice were scored for wellbeing daily as described (Berlin et al. 2019). If the wellness score dropped to below 4 pts, or when weight loss exceeded 20%, the mouse was immediately killed and not analyzed further. […]
Body weight (FIG. 6) and food consumption (FIG. 7) was measured daily. […]

For test [2] the test system is unchanged. In words: SBS mice (ICR): stool water content. Conditions: ICR-resected mice. The class given is in vivo, C57BL/6J mice.
Description: as §1
Briefly, mice were anesthetized by i. p. injection of ketamine (100 mg/kg bw) and xylazine (15 mg/kg bw) and orally intubated and ventilated. After midline incision, the distal small bowel and the cecum were exposed and then transected 12 cm proximal to the ileocecal junction and immediately distal to the cecum. The resected bowel was removed, and the length of the specimen was measured. An end-to-end, jejunocolonic anastomosis was created and the abdomen was closed. In the sham group, laparotomy, bowel exposure, transection and end-to-end anastomosis but no resection was performed. Immediately after surgery, all mice were weighed and received 1 ml isotonic saline subcutaneously and carprofen 5 mg/kg body weight. All surgical procedures were performed by the same surgeon. Mice were kept in a heated terrarium (29° C.) for 4 h and then returned to individual cages with free access to liquid food and water. The liquid diet was provided in feeding tubes. Mice were allowed to recover for a day after surgery, and then injected once daily with 30 nmol/kg body weight of Cpd 18. 50 mM Histidine buffer pH 6, 200 mM Mannitol served as vehicle control.
Stools were collected on selected days throughout the experiment. Stool water content was assessed by collecting stools in a pre-weighed tube, weighing, and then drying overnight at 80° C. and reweighing the dried stools. […]

For test [3] the test system is unchanged. In words: SBS mice (ICR): visual assessment of stool consistency with reference to Bristol Stool type. The class given is in vivo, C57BL/6J mice.
Description: as §1
Briefly, mice were anesthetized by i. p. injection of ketamine (100 mg/kg bw) and xylazine (15 mg/kg bw) and orally intubated and ventilated. After midline incision, the distal small bowel and the cecum were exposed and then transected 12 cm proximal to the ileocecal junction and immediately distal to the cecum. The resected bowel was removed, and the length of the specimen was measured. An end-to-end, jejunocolonic anastomosis was created and the abdomen was closed. In the sham group, laparotomy, bowel exposure, transection and end-to-end anastomosis but no resection was performed. […]

*1 amine or outer side, *2 acyl side, *3 side chain or, on linkers, in order; H or OH if unused. Side-chain parts run from the residue outwards. [ ]: non-standard residue; d: D form. The star is where a group is joined. C18 diacid = O=C(O)CCCCCCCCCCCCCCCCC(=O)*; γGlu = O=C(O)[C@H](CCC(=O)[*:2])N[*:1]; Aib = CC(C)(N)C(=O)O

Take `CC[C@H](C)[C@H](NC(=O)[C@H](Cc1ccccc1)NC(=O)[C@H](CC(=O)O)NC(=O)[C@H](CCCNC(=N)N)NC(=O)[C@H](C)NC(=O)[C@H](C)NC(=O)[C@H](CC(C)C)NC(=O)[C@H](CC(N)=O)NC(=O)[C@H](CC(=O)O)NC(=O)[C@H](CC(C)C)NC(=O)[C@@H](NC(=O)[C@@H](NC(=O)[C@H](CC(N)=O)NC(=O)[C@H](CCSC)NC(=O)[C@H](CCC(=O)O)NC(=O)[C@H](CC(=O)O)NC(=O)[C@H](CO)NC(=O)[C@H](Cc1ccccc1)NC(=O)[C@H](CO)NC(=O)CNC(=O)[C@H](CC(=O)O)NC(=O)CNC(=O)[C@@H](N)Cc1c[nH]cn1)[C@@H](C)O)[C@@H](C)CC)C(=O)N[C@@H](CC(N)=O)C(=O)N[C@@H](Cc1c[nH]c2ccccc12)C(=O)N[C@@H](CC(C)C)C(=O)N[C@H](C(=O)N[C@@H](CCC(N)=O)C(=O)N[C@H](C(=O)N[C@@H](CCCCN)C(=O)N[C@H](C(=O)N[C@H](C(=O)N[C@@H](CC(=O)O)C(=O)O)[C@@H](C)O)[C@@H](C)CC)[C@@H](C)O)[C@@H](C)CC` [Teduglutide, [Gly2]-hGLP-2 (1-33)]: in the test with SBS patients, the effect on diarrhea result is given as “some effect”. Besides, the “effect on treatment of diarrhea” value in the test with SBS mice was “intermittent effect”.
Turning to “H-H[Aib]EGSFTSELATILDK([γGlu-C18 diacid])QAARDFIAWLIQHKITD-OH [Cpd 18]”, in test [1] (30 nmol/kg once daily from day 1 after surgery, vehicle 60%, sham 90%), the “survival rate after 14 days” value came out at 74%. Also, in test [1] (30 nmol/kg once daily, compared to vehicle, up to day 14), the “postoperative relative body weight (relative to initial weight)” value is “differed from the vehicle group after six days onwards by starting to increase towards the initial weight”. For the same compound, the postoperative dietary intake result in test [1] (30 nmol/kg once daily, from day 2 onwards, compared to vehicle) is given as “lower”. Further, the stool water content result in test [2] (30 nmol/kg once daily, day 14, vehicle approximately 75%, sham 50%) is given as “approximately 50%”; in test [2] (after 2 days), “approximately 75%”. In addition, in test [2] (30 nmol/kg once daily, from day 7), the “stool water content compared to vehicle” value is “significantly reduced compared to vehicle”. The “stool consistency, Bristol Stool type” value in test [3] (day 5 after resection, vehicle Type 6 or 7, sham Type 3 or 4) is “Type 4 or 5”; in test [3] (day 14, vehicle Type 6 or 7), “type 4”.
